According to patent publication US20050191308A1 (priority 1999, published 2005):

Experiments:
blood cells = assay type: in vivo, C57BL/6 mice; conditions: 10 μg ESAT-6/dose, three times
ESAT-6 = conditions: in vivo

CCCCCCCCCCCCCCCCCC[N+](C)(C)CCCCCCCCCCCCCCCCCC.[Br-] [DDA]
ESAT-6 specific recall response, IFN-γ, Expt. I (blood cells): <50 pg/mL | ESAT-6 specific IgG (end-point titer), Expt. I (ESAT-6): <3 | ESAT-6 specific IgG (end-point titer), Expt. II (ESAT-6): <3
